Our source for the TGI values is PubChem BioAssay (NCI).

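In this assay, cells in 96-well plates receive the compound at five concentrations for 48 hours. Endpoints are linearly interpolated between the surrounding concentrations. TGI: concentration producing complete growth inhibition.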 Where only a bound is given, the exact number is not on record here.

Some test systems named below: HS 578T breast; HCC-2998 colon; OVCAR-5 ovarian; HL-60(TB) leukemia; RXF 393 renal; SF-539 CNS; IGROV1 ovarian; KM12 colon; SF-295 CNS; MALME-3M melanoma; NCI-H226 lung; U251 CNS; CCRF-CEM leukemia; HCT-15 colon; EKVX NSCLC; MDA-MB-231 breast; OVCAR-8 ovarian; SK-OV-3 ovarian; K-562 leukemia; SNB-78 CNS.
Holding throughout (experiment): growth of human tumour cells (NCI), 48 h

With `COC(=O)c1c(C)cccc1C1CN=NC12Cc1ccccc1C2=O` (stereo unspecified), the TGI in the assay with HS 578T breast, in the assay with HCC-2998 colon, in the assay on OVCAR-5 ovarian, in the assay on HL-60(TB) leukemia, with RXF 393 renal and in the assay with SF-539 CNS was > 100 µM each time. Further, the TGI in the assay on IGROV1 ovarian, with KM12 colon, in the assay on SF-295 CNS, in the assay on MALME-3M melanoma, with NCI-H226 lung and in the assay with U251 CNS was > 100 µM throughout. Further, the TGI in the assay with CCRF-CEM leukemia, in the assay with HCT-15 colon, with EKVX NSCLC, in the assay with MDA-MB-231 breast, in the assay on OVCAR-8 ovarian and in the assay with SK-OV-3 ovarian was > 100 µM throughout. Moreover, in the assay with K-562 leukemia, the TGI was > 100 µM.

With `COc1cccc2ccc(C(=O)c3ccccc3)nc12`, the TGI with HCC-2998 colon, in the assay on OVCAR-5 ovarian, in the assay with SNB-78 CNS, in the assay with SF-539 CNS, with IGROV1 ovarian and with KM12 colon was > 100 µM in each case. The TGI in the assay on SF-295 CNS, with MALME-3M melanoma, in the assay with NCI-H226 lung, with U251 CNS, in the assay on CCRF-CEM leukemia and with HCT-15 colon was > 100 µM in each case. Further, the TGI with EKVX NSCLC, in the assay on OVCAR-8 ovarian and in the assay on K-562 leukemia was > 100 µM in each case.

On to `O=C(CC(CC(=O)Oc1c(Br)cc(Br)cc1C(=O)O)C(=O)Oc1c(Br)cc(Br)cc1C(=O)O)Oc1c(Br)cc(Br)cc1C(=O)O`, for which the TGI is > 100 µM with HCC-2998 colon; > 100 µM in the assay on OVCAR-5 ovarian; 96.6 µM with HL-60(TB) leukemia; > 100 µM with SNB-78 CNS; > 100 µM with SF-539 CNS; 87.3 µM with IGROV1 ovarian. Also, the TGI with KM12 colon was > 100 µM; with SF-295 CNS, > 100 µM; in the assay on MALME-3M melanoma, > 100 µM; in the assay on NCI-H226 lung it was 57 µM; in the assay with U251 CNS, > 100 µM; with CCRF-CEM leukemia it was > 100 µM. Also, the TGI with HCT-15 colon was > 100 µM; with EKVX NSCLC it was > 100 µM; in the assay with OVCAR-8 ovarian it was 99.6 µM; with SK-OV-3 ovarian, > 100 µM; in the assay with K-562 leukemia, > 100 µM.

As for `O=C(C=C1SCCS1)/C=C\c1ccc(Cl)cc1`, the TGI with HCC-2998 colon is 84.1 µM; in the assay on HL-60(TB) leukemia it was > 100 µM; with SNB-78 CNS it was > 100 µM; in the assay on SF-539 CNS, > 100 µM; in the assay with IGROV1 ovarian it was > 100 µM; in the assay with KM12 colon, > 100 µM. The TGI in the assay on SF-295 CNS, in the assay on MALME-3M melanoma, with NCI-H226 lung, in the assay on CCRF-CEM leukemia, in the assay on EKVX NSCLC and in the assay on OVCAR-8 ovarian was > 100 µM throughout. For the same compound, the TGI in the assay with SK-OV-3 ovarian and in the assay on K-562 leukemia was > 100 µM each time.

As to `O=[N+]([O-])c1ccc(-c2cc(O)c3nc4ccccc4n3c2)cc1`, the TGI with HS 578T breast, in the assay with HCC-2998 colon, in the assay on OVCAR-5 ovarian, in the assay with HL-60(TB) leukemia, in the assay with RXF 393 renal and with SF-539 CNS was > 100 µM in each case. In addition, the TGI in the assay on IGROV1 ovarian, in the assay with KM12 colon, in the assay on SF-295 CNS, in the assay with MALME-3M melanoma, in the assay with NCI-H226 lung and in the assay on U251 CNS was > 100 µM in each case. The TGI in the assay on CCRF-CEM leukemia, with HCT-15 colon, in the assay on EKVX NSCLC, with MDA-MB-231 breast, in the assay on OVCAR-8 ovarian and with SK-OV-3 ovarian was > 100 µM in each case. Besides, in the assay with K-562 leukemia, the TGI was > 100 µM.

For `CC(=O)Nc1ccc(NS(=O)(=O)c2ccc3nc(C)n(NS(=O)(=O)c4ccc(NC(C)=O)cc4)c(=O)c3c2)cc1`, the TGI with HS 578T breast, with HCC-2998 colon, with OVCAR-5 ovarian, with HL-60(TB) leukemia, in the assay with RXF 393 renal and in the assay with SF-539 CNS was > 100 µM in each case. Moreover, the TGI with IGROV1 ovarian, with KM12 colon, with SF-295 CNS, in the assay on MALME-3M melanoma, in the assay with NCI-H226 lung and in the assay on U251 CNS was > 100 µM in each case. In addition, the TGI in the assay with CCRF-CEM leukemia, with HCT-15 colon, in the assay with EKVX NSCLC, in the assay with MDA-MB-231 breast, in the assay on OVCAR-8 ovarian and in the assay with SK-OV-3 ovarian was > 100 µM each time. Further, the TGI in the assay with K-562 leukemia is > 100 µM.

On to `CCN(CC)CCC(=O)c1ccc(Sc2ccc(F)cc2)cc1`, for which the TGI with HS 578T breast turned out to be 30.8 µM; with HCC-2998 colon, 89.6 µM; with OVCAR-5 ovarian, 39.3 µM; with HL-60(TB) leukemia it was 50.5 µM; in the assay on RXF 393 renal, 35.1 µM; in the assay on SF-539 CNS it was 32.9 µM. Besides, the TGI in the assay with IGROV1 ovarian was 35 µM; with KM12 colon, 30.6 µM; in the assay with SF-295 CNS, 35.1 µM; in the assay on MALME-3M melanoma, 33.4 µM; with NCI-H226 lung, 39.2 µM; with U251 CNS, 31.1 µM. Moreover, the TGI in the assay on CCRF-CEM leukemia came to 34 µM; with HCT-15 colon, 33.4 µM; with EKVX NSCLC, 41.8 µM; in the assay with MDA-MB-231 breast, 34 µM; in the assay on OVCAR-8 ovarian it was 48.1 µM; with SK-OV-3 ovarian it was 45 µM. In addition, the TGI in the assay with K-562 leukemia was > 100 µM.

As to `COc1ccc(CC2C3=C(CCN2C(=O)C2CCC2)CC2(CC3)OCCO2)cc1O` (stereo unspecified), the TGI with HS 578T breast was 73.4 µM; in the assay with HCC-2998 colon, > 100 µM; in the assay with OVCAR-5 ovarian, > 100 µM; in the assay on HL-60(TB) leukemia, 76.9 µM; in the assay on RXF 393 renal it was 37.5 µM; with SF-539 CNS, 75.9 µM. Also, the TGI in the assay on IGROV1 ovarian is > 100 µM; with KM12 colon, > 100 µM; in the assay with SF-295 CNS, 45.5 µM; with MALME-3M melanoma it was > 100 µM; in the assay with NCI-H226 lung, > 100 µM; in the assay on U251 CNS it was > 100 µM. Moreover, the TGI in the assay on CCRF-CEM leukemia was > 100 µM; in the assay with HCT-15 colon, 46.2 µM; with EKVX NSCLC, > 100 µM; with MDA-MB-231 breast, > 100 µM; in the assay on OVCAR-8 ovarian, > 100 µM; with SK-OV-3 ovarian it was 88.1 µM. In the assay with K-562 leukemia, the TGI is 84.4 µM.
